One data set is described as follows: XTT assay, MT-2 cells. It counts as cell-based. Conditions: human. The protocol: (§1) The in vitro cell viability of NSPD-12m on HIV-1 target cells (U87-CD4-CXCR4, U87-CD4-CCR5, TZM-bl, and MT-2 cells) and HIV effector cells (CHO-WT cells) was analyzed by an XTT colorimetric assay. Briefly, 100 µl of 5 × 10^5/ml cells was mixed and incubated with 100 µl of NSPD-12m at graded concentrations at 37°C for 3 days. Then, 50 µl of XTT solution (1 mg/ml) containing 0.02 µM of phenazinemethosulphate (PMS) was added to each well, and the cells were incubated at 37°C for another 4 h. The absorbance at 450 nm was measured with an ELISA reader. The 50% cytotoxicity concentrations (CC50) were calculated using the CalcuSyn software ([Chou and Talalay, 1984]).
(In general: Tetrazolium dyes change colour on reduction, which living cells bring about.)

In another data set the target is T1, gp41 6-HB (N36/C34) (Human immunodeficiency virus type 1 group M subtype B, UniProt P04578).
T1 construct: purchased GL Biochem of China; host or cells: chemical solid-phase Fmoc synthesis
T1 sequence (P04578 546-581): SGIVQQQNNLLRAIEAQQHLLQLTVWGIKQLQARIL
Nature of the data set: CD spectroscopy of N36/C34 alpha-helical conformation. Type of data set: biochemical, HIV-1. Conditions: 20-µM compound preincubated with N36 before the addition of C34. The protocol: The effects of NSPD-12m on the formation of the secondary α-helix structures of the peptides N36 and C34 were detected by CD spectroscopy as described previously ([Liu et al., 2005]; [Zhang et al., 2018]). Briefly, the peptide N36 (10 µM in PBS) was incubated with NSPD-12m (20 µM in PBS) or PBS at 37°C for 30 min, followed by incubation with the peptide C34 (10 µM in PBS) at 37°C for another 30 min. To further confirm that NSPD-12m inhibited the formation of secondary α-helix structures, the peptide N36 was incubated with the peptide C34 at 37°C for 30 min before the addition of the compound. ADS-J1 (40 µM in PBS) was used as a positive control. The reported CD spectra of the peptides N36 and C34 and the mixture of N36, C34, and the compounds described previously were obtained at 25°C using a Jasco 715 spectropolarimeter (Jasco Inc., Japan) with a 5.0-nm bandwidth, 0.1-nm resolution, 0.1-cm path length, 4.0-s response time, and 50-nm/min scanning speed. The spectra were corrected by the subtraction of a blank corresponding to the solvent. The quantities of compounds with α-helix structures were estimated from the molar ellipticity at 222 nm using Jasco software utilities.

Data set [1] has as its system HIV-1SF162 (R5 strain) Env pseudotyped virus. The experiment in a line: microbe, parasite or virus in culture. It counts as cell-based. Conditions: Human immunodeficiency virus 1, single-cycle infection, luciferase.
Data set [2] has as its system HIV-1 Env-mediated fusion of CHO-WT cells with MT-2 cells. The experiment in a line: HIV-1 Env-mediated cell-cell fusion (syncytium formation). It counts as cell-based. Conditions: Human immunodeficiency virus 1, MT2; CHO-WT effector cells, MT-2 target cells; 48 h. On the procedure: Here, a noninfectious cell–cell fusion assay was used to determine the effect of NSPD-12m on the early step of HIV-1 entry into a target cell as described previously ([Li et al., 2010]). Briefly, 1 × 10^5 CHO-WT cells expressing the HIV-1 envelope glycoprotein gp160 (as the effector cells) were preincubated with graded concentrations of NSPD-12m at 37°C for 30 min. Then, 1 × 10^5 MT-2 cells expressing the CD4 receptor and the CXCR4 coreceptor (as the target cells) were added and cocultured for another 48 h. The obvious syncytia could be counted under an inverted microscope (Nikon, Japan). Four fields per well were examined randomly. The EC50 values were calculated as described previously ([Chou and Talalay, 1984]).

For the next data set, the system named is HIV-1 NL4-3D36G. Type of data set: cell-based. Conditions: T20-sensitive parent strain, p24 ELISA, mean ± SD. On the technique in general: ELISA stands for enzyme-linked immunosorbent assay.
Another data set is described as follows: XTT assay, CHO-WT cells. Conditions: Chinese hamster. Type of data set: cell-based. On the procedure: as §1
Data set [3] concerns HIV-1JR-FL Env mutant R579A pseudovirus. Type of data set: cell-based. Conditions: compared with wild-type HIV-1JR-FL pseudovirus.
For data set [4], the target named is T2, synthetic peptide N36 (gp41 NHR) (Human immunodeficiency virus type 1 group M subtype B, UniProt P04578).
T2 construct: purchased GL Biochem of China; host or cells: chemical solid-phase Fmoc synthesis
T2 sequence (P04578 546-581): as above
Nature of the data set: Surface plasmon resonance binding to N36. Set-up: species or system HIV-1. Conditions: SPR, compound immobilized on chip, N36 injected, 25°C; read-out: binding affinity (KD) to N36. In general terms: SPR reads the build-up and loss of mass on a sensor chip optically.
Procedure: N36 at different concentrations (125, 250, and 500 µM in PBS) was injected at a flow rate of 2 µl/s with an association and dissociation time of 300 s at 25°C. At the end of each cycle, glycine–HCl buffer (pH 2.0) at a flow rate of 3 µl/s was used to regenerate the surface of the sensor chip platform with a regeneration time of 300 s. The binding affinity (KD) was calculated using the PlexeraDE data analysis module and GraphPad Prism 5.0 software.

Another data set concerns HIV-1 US4 (GS 007). Nature of the data set: microbe, parasite or virus in culture. It counts as cell-based. Conditions: Human immunodeficiency virus 1, primary strain US4 (GS 007), luciferase readout, mean ± SD. The protocol: (§2) The HIV-1 replication-inhibiting activity of compounds was determined as previously described ([Li et al., 2013]). Briefly, 1 × 10^4 TZM-bl or MT-2 cells were infected with primary HIV-1 strains or T20-resistant HIV-1 strains (100 TCID50) in 200 µl of RPMI-1640 medium containing 10% FBS in the presence or absence of compounds at graded concentrations for 12 h. The culture medium was replaced with fresh medium without the compounds. After culture for an additional 48 h, supernatants or cells were collected from each well. For the primary HIV-1 strains, the cells were treated using a luciferase kit. Briefly, the cells were lysed with the lysis reagent and were transferred into a 96-well flat-bottom luminometer plate after three washes with phosphate-buffered saline (PBS) (Costar Corning Inc., Corning, NY), followed by addition of the luciferase substrate included in the luciferase kit (Promega Corp., Madison, WI). The luciferase activity was measured immediately by an Ultra 384 microplate reader (Tecan, Research Triangle Park, NC). T20 was used as a positive control. For the T20-resistant HIV-1 strains, 100 µl of culture supernatant was mixed with 100 µl of 5% Triton X-100. Then, those virus lysates were assayed for p24 antigen by enzyme linked immunosorbent assay (ELISA) as previously described ([Li et al., 2010]). Absorbance at 450 nm was recorded in an ELISA reader (Ultra 384, Tecan). EC50 values were calculated using the computer program CalcuSyn ([Chou and Talalay, 1984]).

Another data set has as its system HIV-1 BCF02. Nature of the data set: microbe, parasite or virus in culture. Type of data set: cell-based. Conditions: Human immunodeficiency virus 1, primary strain BCF02, luciferase readout, mean ± SD. On the procedure: as §2
Another data set has as its system HIV-1 93/BR/020. The experiment in a line: microbe, parasite or virus in culture. Type of data set: cell-based. Conditions: Human immunodeficiency virus 1, primary strain 93/BR/020, luciferase readout, mean ± SD. On the procedure: as §2
The subject of data set [5] is T20-resistant HIV-1 strains. The experiment in a line: Anti-HIV-1 activity, panel of T20-resistant mutants. Conditions: Human immunodeficiency virus 1; range over T20-resistant mutants; read-out: EC50 values against a series of T20-resistant mutants. It counts as cell-based. On the procedure:
as §2, with “Then, those virus lysates were assayed for p24 antigen by enzyme linked immunosorbent assay (ELISA) as previously described ([Li et al., 2010]).” left out

Structures are written as SMILES.

As for `Cc1cc(/C=C2\SC(=S)N(Cc3ccccc3C(F)(F)F)C2=O)c(C)n1-c1ccc(O)c(C(=O)O)c1` [NSPD-12m], the CC50 at 3 days in “XTT assay, MT-2 cells” amounted to 67.1 ± 11 µM; in “XTT assay, CHO-WT cells”, 60 ± 13.2 µM. Besides, the CC90 at 3 days came out at 124 ± 70.2 µM in “XTT assay, MT-2 cells” and 74.6 ± 13.8 µM in “XTT assay, CHO-WT cells”. The “α-helical content of the 6-HB (CD, 222 nm)” value at gp41 6-HB (N36/C34) is “clearly reduced”. Further, the EC50 in data set [1] is around 19.7 µM; in [2], 14.4 ± 1.24 µM; in data set [5], 15.7 to 24.7 µM. The IC50 in the data set with HIV-1 NL4-3D36G worked out at 10.8 ± 1.67 µM; in the data set with HIV-1 US4 (GS 007) (read-out: IC50), 2.34 ± 0.353 µM; with HIV-1 BCF02 (read-out: IC50), 1.79 ± 0.238 µM; in the data set with HIV-1 93/BR/020, 4.91 ± 0.13 µM. The concentration for an effect of 90% (IC90) in the data set on HIV-1 NL4-3D36G was 55.4 ± 16.9 µM; in the data set with HIV-1 US4 (GS 007) (read-out: IC90) it was 5.27 ± 2.73 µM; with HIV-1 BCF02 (read-out: IC90), 3.48 ± 1.09 µM; in the data set on HIV-1 93/BR/020 (read-out: IC90), 6.76 ± 1.56 µM. Besides, the “inhibitory activity against R579A mutant pseudovirus” value in [3] is recorded as “retained the inhibitory activity”. For the same molecule, in data set [4], the Kd stood at 0.411 µM.

By CC50 is commonly meant the concentration at which the toxic effect on the cells reaches its halfway point. Read a low CC50 as harm at low concentration. Broadly, the EC50 is the concentration that produces a half-maximal response. For orientation: IC50 means the concentration needed to halve the response being measured. As usually defined, the IC90 is the concentration needed for an effect of 90%. What is called Kd is a measure of binding affinity in units of concentration.

The record behind these values is article PMC6688628, “N-Substituted Pyrrole Derivative 12m Inhibits HIV-1 Entry by Targeting Gp41 of HIV-1 Envelope Glycoprotein” (Frontiers in Pharmacology, 2019).
